How the values were obtained:
human TRPA1 ion channel = biological target: T1, human TRPA1 ion channel (Homo sapiens, UniProt O75762); experiment: Assay A: TRPA1 assay (FLIPR, AITC-induced calcium, HEK293 cells); type: cell-based; settings: read-out: hTRPA1 IC50
T1 construct: host or cells: HEK293
Method: A human HEK293 cell line over-expressing the human TRPA1 ion channel (Perkin Elmer, Product No. AX-004-PCL) is used as a test system for compound efficacy and potency. Compound activity is determined by measuring the effect of compounds on intracellular calcium concentration induced by AITC (Allylisothiocyanat) agonism in a FLIPRtetra system (Molecular Devices).
The cells are obtained as frozen cells in cryo-vials and stored until use at −150° C. Cells are grown in culture medium (MEM/EBSS medium with 10% FCS and 0.4 mg/ML Geneticin). […] For sub-culturing cells are detached from flasks by Versene. At the day before the assay, cells are detached, washed twice with medium (MEM/EBSS medium with 10% FCS) and 20000 cells in 20 μl/well are seeded to Poly D-Lysin biocoated 384-well plates (black, clear bottom, Cat. 356697) from Corning. Plates are incubated for 24 hours at 37° C./5% CO2 before use in the assay.
The test compounds are dissolved in 100% DMSO at a concentration of 10 mM and in a first step diluted in DMSO to a concentration of 5 mM, followed by serial dilution steps in 100% DMSO. Dilution factor and number of dilution steps may vary according to needs. Typically 8 different concentrations by 1:5 dilutions are prepared, further intermediate dilutions (1:20) of the substances are carried out with HBSS/HEPES buffer (1×HEPES, Cat. 14065 from Gibco, 20 mM HEPES, Cat. 83264 from SIGMA, 0.1% BSA Cat. 11926 from Invitrogen, pH 7.4
At the assay day cells are washed 3× with assay puffer, 20 μL buffer remaining in the wells after washing. 10 μL Ca6 kit (Cat. R8191 MolecularDevices) loading buffer in HBSS/HEPES is added to the cells and the plates are incubated with lid for 120 minutes at 37°/5% CO2. 10 μL of compound or controls in HBSS/HEPES buffer/5% DMSO from the intermediate dilution plate are carefully added to the wells. […] Finally 10 μL of the agonist AITC 50 μM dissolved in HBSS/HEPES buffer/0.05% DMSO (final concentration 10 μM) is added to the wells followed by an additional read on the FLIPRtetra device for 10 minutes. The area under the signal curve (AUC) after AITC addition is used for IC50/% inhibition calculations
Data Evaluation and Calculation:
Each assay microtiter plate contains wells with vehicle (1% DMSO) controls instead of compound as controls for AITC induced luminescence (100% CTL; high controls) and wells with vehicle controls without AITC as controls for non-specific changes in luminescence (0% CTL; low controls).
The analysis of the data is performed by the calculation of the area under signal curve of the individual wells. Based on this values the % value for the measurement of each substance concentration is calculated (AUC(sample)−AUC(low))*100/(AUC(high)−AUC(low)) using MegaLab software (in house development). The IC50 values are calculated from the % control values using MegaLab software. Calculation: [y=(ad)/(1+(x/c)^b)+d], a=low value, d=high value; x=conc M; c=IC50 M; b=hill; y=% ctrl

[1] = Assay B: Microsomal clearance; type: in vitro ADME, human; settings: pooled liver microsomes 1 mg/ml, 1 μM compound, NADPH, 37° C.; clearance as % of hepatic blood flow
Method: Assay B: Microsomal Clearance:
The metabolic degradation of the test compound is assayed at 37° C. with pooled liver microsomes. The final incubation volume of 100 μl per time point contains TRIS buffer pH 7.6 at RT (0.1 M), magnesium chloride (5 mM), microsomal protein (1 mg/ml) and the test compound at a final concentration of 1 μM.
Following a short preincubation period at 37° C., the reactions are initiated by addition of beta-nicotinamide adenine dinucleotide phosphate, reduced form (NADPH, 1 mM) and terminated by transferring an aliquot into solvent after different time points (0, 5, 15, 30, 60 min). Additionally, the NADPH-independent degradation is monitored in incubations without NADPH, terminated at the last time point. The [%] remaining test compound after NADPH independent incubation is reflected by the parameter c(control) (metabolic stability). The quenched incubations are pelleted by centrifugation (10000 g, 5 min).
An aliquot of the supernatant is assayed by LC-MS/MS for the amount of parent compound. The half-life (t½ INVITRO) is determined by the slope of the semilogarithmic plot of the concentration-time profile.
The intrinsic clearance (CL_[…]) is calculated by considering the amount of protein in the incubation: CL_[…] [μl/min/mg protein]=(Ln 2/(half-life [min]*protein content [mg/ml]))*1000 CL_[…]_INVIVO [ml/min/kg]=(CL_[…] [μL/min/mg protein]×MPPGL [mg protein/g liver]×liver factor [g/kg bodyweight])/1000 Qh[%]=CL[ml/min/kg]/hepatic blood flow [ml/min/kg])
(§1) Hepatocellularity, human: 120×10e6 cells/g liver
(§2) Liver factor, human: 25.7 g/kg bodyweight
(§3) Blood flow, human: 21 ml/(min×kg)

[2] = Assay C: Hepatocyte clearance; type: in vitro ADME, human; settings: hepatocyte suspension, 1 μM compound, 6 h; predicted clearance as % of hepatic blood flow
Method: Assay C: Hepatocyte Clearance
The metabolic degradation of the test compound is assayed in a hepatocyte suspension. Hepatocytes (cryopreserved) are incubated in Dulbecco's modified eagle medium (supplemented with 3.5 μg glucagon/500 mL, 2.5 mg insulin/500 mL and 3.75 mg/500 mL hydrocortison) containing 5% or 50% species serum.
The cells are incubated for six hours (incubator, orbital shaker) and samples ([…]) are taken at 0, 0.5, 1, 2, 4 and 6 hours. Samples are transferred into acetonitrile and pelleted by centrifugation (5 min). The supernatant is transferred to a new 96-deepwell plate, evaporated under nitrogen and resuspended.
Decline of Parent Compound is Analyzed by HPLC-MS/MS
CLint is calculated as follows CL_[…]=Dose/AUC=(C0/CD)/(AUD+clast/k)×1000/60. C0: initial concentration in the incubation [μM], CD: cell density of vital cells [10e6 cells/mL], AUD: area under the data [μM×h], clast: concentration of last data point [μM], k: slope of the regression line for parent decline [h−1].
The calculated in vitro hepatic intrinsic clearance can be scaled up to the intrinsic in vivo hepatic Clearance and used to predict hepatic in vivo blood clearance (CL) by the use of a liver model (well stirred model). CL_[…]_INVIVO [ml/min/kg]=(CL_[…] [μL/min/10e6 cells]×hepatocellularity [10e6 cells/g liver]×liver factor [g/kg bodyweight])/1000 CL[ml/min/kg]=CL_[…]_INVIVO [ml/min/kg]×hepatic blood flow [ml/min/kg]/(CL_[…]_INVIVO [ml/min/kg]+hepatic blood flow [ml/min/kg]) Qh[%]=CL[ml/min/kg]/hepatic blood flow [ml/min/kg])
as §1, §2, §3

T1 sequence (O75762 whole entry): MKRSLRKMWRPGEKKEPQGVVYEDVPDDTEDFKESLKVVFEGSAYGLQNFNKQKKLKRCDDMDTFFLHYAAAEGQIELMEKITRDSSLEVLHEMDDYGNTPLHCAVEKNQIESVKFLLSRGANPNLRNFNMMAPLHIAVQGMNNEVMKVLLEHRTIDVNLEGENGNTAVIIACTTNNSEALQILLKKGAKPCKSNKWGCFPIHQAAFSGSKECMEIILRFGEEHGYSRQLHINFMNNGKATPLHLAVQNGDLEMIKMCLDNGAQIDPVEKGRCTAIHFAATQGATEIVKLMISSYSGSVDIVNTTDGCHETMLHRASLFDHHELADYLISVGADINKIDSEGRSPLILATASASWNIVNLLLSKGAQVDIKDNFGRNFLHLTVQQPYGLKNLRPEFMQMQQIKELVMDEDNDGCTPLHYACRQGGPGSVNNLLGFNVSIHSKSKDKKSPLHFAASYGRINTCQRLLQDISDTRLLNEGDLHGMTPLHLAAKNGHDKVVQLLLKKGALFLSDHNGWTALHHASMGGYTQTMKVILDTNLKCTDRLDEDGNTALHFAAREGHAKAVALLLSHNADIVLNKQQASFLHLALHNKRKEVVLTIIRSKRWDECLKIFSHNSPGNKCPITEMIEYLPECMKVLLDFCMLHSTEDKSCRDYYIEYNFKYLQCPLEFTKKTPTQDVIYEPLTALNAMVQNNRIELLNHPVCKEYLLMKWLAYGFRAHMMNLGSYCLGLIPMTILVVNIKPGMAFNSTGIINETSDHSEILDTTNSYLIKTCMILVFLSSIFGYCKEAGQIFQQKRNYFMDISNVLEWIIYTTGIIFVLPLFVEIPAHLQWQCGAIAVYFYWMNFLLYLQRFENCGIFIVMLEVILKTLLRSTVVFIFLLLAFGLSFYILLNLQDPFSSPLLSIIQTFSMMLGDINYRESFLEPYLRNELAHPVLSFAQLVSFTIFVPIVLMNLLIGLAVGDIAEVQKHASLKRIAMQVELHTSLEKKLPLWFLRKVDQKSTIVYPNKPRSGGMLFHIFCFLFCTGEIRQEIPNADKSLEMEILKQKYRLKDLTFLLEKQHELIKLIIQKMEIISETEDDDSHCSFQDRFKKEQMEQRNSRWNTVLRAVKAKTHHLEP

SMILES | IC50 (human TRPA1 ion channel) | human LM [% Qh] [1] | human Hepatocytes [% Qh] [2]
CN1CCOCC1CNC(=O)c1cn(Cc2nnn(C[C@H](O)c3ccc(Cl)cc3)n2)c(=O)n(C)c1=O (stereo partly drawn) [Example 25] | 43 nM | 55 % Qh | 42 % Qh
Cn1c(=O)c(C(=O)NCCS(C)(=O)=O)cn(Cc2nnn(C[C@H](O)c3ccc(Cl)cc3)n2)c1=O [Example 28] | 186 nM | <23 % Qh | <4 % Qh
Cn1c(=O)c(C(=O)NCCOC(F)(F)F)cn(Cc2nnn(C[C@H](O)c3ccc(Cl)cc3)n2)c1=O [Example 30] | 44 nM | 28 % Qh | 9 % Qh
Cn1c(=O)c(C(=O)NCC(F)(F)F)cn(Cc2nnn(C[C@H](O)c3ccc(Cl)cc3)n2)c1=O [Example 31] | 68 nM | <23 % Qh | 4 % Qh
Cn1c(=O)c(C(=O)NCC2CC2)cn(Cc2nnn(C[C@H](O)c3ccc(Cl)cc3)n2)c1=O [Example 32] | 92 nM | 52 % Qh | 45 % Qh

The next lines start with the values.

IC50 (human TRPA1 ion channel) | human LM [% Qh] [1] | human Hepatocytes [% Qh] [2] | SMILES
100 nM | 52 % Qh | 21 % Qh | Cn1ccnc1CNC(=O)c1cn(Cc2nnn(C[C@H](O)c3ccc(Cl)cc3)n2)c(=O)n(C)c1=O [Example 26]
140 nM | <23 % Qh | 17 % Qh | CNC(=O)c1cn(Cc2nnn(C[C@H](O)c3ccc(Cl)cc3)n2)c(=O)n(C)c1=O [Example 27]
229 nM | 53 % Qh | 27 % Qh | Cn1c(=O)c(C(=O)NCCn2ccnc2)cn(Cc2nnn(C[C@H](O)c3ccc(Cl)cc3)n2)c1=O [Example 29]
116 nM | 57 % Qh | 28 % Qh | Cn1c(=O)c(C(=O)NCCF)cn(Cc2nnn(C[C@H](O)c3ccc(Cl)cc3)n2)c1=O [Example 33]
297 nM | 43 % Qh | 44 % Qh | CCNC(=O)c1cn(Cc2nnn(C[C@H](O)c3ccc(Cl)cc3)n2)c(=O)n(C)c1=O [Example 34]
33 nM | <23 % Qh | 19 % Qh | Cn1c(=O)c(C(=O)NCCn2cccn2)cn(Cc2nnn(C[C@H](O)c3ccc(Cl)cc3)n2)c1=O [Example 35]

— US11884652B2, “Tetrazole derivatives as TRPA1 inhibitors” (Boehringer Ingelheim International GmbH, priority 2020, dated 2024)
